Experimental data taken from patent publication US8735421B2, “Imidazoquinolinyl sulfonamides” (3M Innovative Properties Company, priority 2003, dated 2014).
Where a name gives a salt, the structure may show the parent alone.

First: CCc1nc2c(N)nc3ccccc3c2n1CCCCS(=O)(=O)NCc1ccc(OC)cc1 [Example 5, N-(4-Methoxybenzyl) 4-(4-amino-2-ethyl-1H-imidazo[4,5-c]quinolin-1-yl)butane-1-sulfonamide]
Second: CCOCc1nc2c(N)nc3ccccc3c2n1CCCCS(=O)(=O)NCc1ccc(OC)cc1 [Example 20, N-(4-Methoxybenzyl) 4-(4-amino-2-ethoxymethyl-1H-imidazo[4,5-c]quinolin-1-yl)butane-1-sulfonamide]
The melting point of the first is higher: 176 to 177 °C for the first, 101 °C for the second.

First: CCOCc1nc2c(N)nc3ccccc3c2n1CCCCS(N)(=O)=O [Example 21, 4-(4-Amino-2-ethoxymethyl-1H-imidazo[4,5-c]quinolin-1-yl)butane-1-sulfonamide]
Second: CCOCc1nc2c(N)nc3ccccc3c2n1CCCCCS(N)(=O)=O [Example 23, 5-(4-Amino-2-ethoxymethyl-1H-imidazo[4,5-c]quinolin-1-yl)pentane-1-sulfonamide]
The melting point of the first is lower: 155 to 158 °C for the first, 176 to 178 °C for the second.

Compared with CCCc1nc2c(N)nc(C)c(C)c2n1CCCCS(N)(=O)=O [Example 31, 4-(4-Amino-6,7-dimethyl-2-propyl-1H-imidazo[4,5-c]pyridin-1-yl)butane-1-sulfonamide], CCOCc1nc2c(N)nc(C)c(C)c2n1CCCCS(N)(=O)=O [Example 35, 4-(4-Amino-2-ethoxymethyl-6,7-dimethyl-1H-imidazo[4,5-c]pyridin-1-yl)butane-1-sulfonamide] is higher in melting point: 167 to 169 °C for the first, 200 to 201.5 °C for the second.

First: CCOCc1nc2c(N)nc3ccccc3c2n1CC(C)(C)CS(N)(=O)=O [Example 42, 3-[4-Amino-2-(ethoxymethyl)-1H-imidazo[4,5-c]quinolin-1-yl]-2,2-dimethylpropane-1-sulfonamide]
Second: CCOCc1nc2c(N)nc3ccccc3c2n1CC(C)(C)CS(=O)(=O)NC [Example 36, 3-[4-Amino-2-(ethoxymethyl)-1H-imidazo[4,5-c]quinolin-1-yl]-N,2,2-trimethylpropane-1-sulfonamide]
The melting point of the first is higher: 229 to 231 °C for the first, 161 to 163 °C for the second.

Compared with CCOCc1nc2c(N)nc3cccnc3c2n1CCCCS(=O)(=O)N(C)C [Example 29, N,N-Dimethyl 4-(4-Amino-2-ethoxymethyl-1H-imidazo[4,5-c][1,5]naphthyridin-1-yl)butane-1-sulfonamide], CCCc1nc2c(N)nc3cccnc3c2n1CCCCS(=O)(=O)N(C)C [Example 30, N,N-Dimethyl 4-(4-Amino-2-propyl-1H-imidazo[4,5-c][1,5]naphthyridin-1-yl)butane-1-sulfonamide] is higher in melting point: 148 to 150 °C for the first, 162 to 163 °C for the second.

Compared with CCOCc1nc2c(N)nc(C)c(C)c2n1CCCCS(=O)(=O)NC [Example 34, N-Methyl 4-(4-Amino-6,7-dimethyl-2-ethoxymethyl-1H-imidazo[4,5-c]pyridin-1-yl) butane-1-sulfonamide], CCOCc1nc2c(N)nc(C)c(C)c2n1CCCCS(=O)(=O)N(C)C [Example 28, N,N-Dimethyl 4-(4-Amino-6,7-dimethyl-2-ethoxymethyl-1H-imidazo[4,5-c]pyridin-1-yl)butane-1-sulfonamide] is lower in melting point: 194.5 to 196 °C for the first, 158 to 160 °C for the second.

Compared with CCOCc1nc2c(N)nc3ccccc3c2n1CCCCCS(=O)(=O)N(C)C [Example 17, N,N-Dimethyl 5-(4-amino-2-ethoxymethyl-1H-imidazo[4,5-c]quinolin-1-yl)pentane-1-sulfonamide], CCOCc1nc2c(N)nc3ccccc3c2n1CCCCS(=O)(=O)N(C)C [Example 11, N,N-Dimethyl 4-(4-amino-2-ethoxymethyl-1H-imidazo[4,5-c]quinolin-1-yl)butane-1-sulfonamide] is higher in melting point: 138 to 142 °C for the first, 173 to 174 °C for the second.

First: CCOCc1nc2c(N)nc3ccccc3c2n1CCCCS(=O)(=O)N1CCCCC1 [Example 12, 2-Ethoxymethyl-1-[4-(piperidine-1-sulfonyl)butyl]-1H-imidazo[4,5-c]quinoline-4-amine]
Second: CCOCc1nc2c(N)nc3ccccc3c2n1CCCCS(=O)(=O)NC1CCCCC1 [Example 13, N-Cyclohexyl 4-(4-amino-2-ethoxymethyl-1H-imidazo[4,5-c]quinolin-1-yl)butane-1-sulfonamide]
The melting point of the first is lower: 185 to 188 °C for the first, 197 to 198 °C for the second.

First: CCOCc1nc2c(N)nc3ccccc3c2n1CCCCCS(=O)(=O)NCc1ccc(OC)cc1 [Example 22, N-(4-Methoxybenzyl) 5-(4-amino-2-ethoxymethyl-1H-imidazo[4,5-c]quinolin-1-yl)pentane-1-sulfonamide]
Second: CCOCc1nc2c(N)nc3ccccc3c2n1CCCCS(=O)(=O)Nc1ccc(OC)cc1 [Example 8, N-(4-Methoxyphenyl) 4-(4-amino-2-ethoxymethyl-1H-imidazo[4,5-c]quinolin-1-yl)butane-1-sulfonamide]
The melting point of the first is lower: 177 to 178 °C for the first, 229 to 230 °C for the second.

First: CCOCc1nc2c(N)nc3ccccc3c2n1CCCCS(=O)(=O)NC [Example 10, N-Methyl 4-(4-amino-2-ethoxymethyl-1H-imidazo[4,5-c]quinolin-1-yl)butane-1-sulfonamide]
Second: CCOCc1nc2c(N)nc3ccccc3c2n1CCCCCS(=O)(=O)NC [Example 16, N-Methyl 5-(4-amino-2-ethoxymethyl-1H-imidazo[4,5-c]quinolin-1-yl)pentane-1-sulfonamide]
The melting point of the first is lower: 170 to 172 °C for the first, 175 to 179 °C for the second.

First: CCCc1nc2c(N)nc3cccnc3c2n1CCCCS(=O)(=O)NC [Example 33, N-Methyl 4-(4-Amino-2-propyl-1H-imidazo[4,5-c][1,5]naphthyridin-1-yl)butane-1-sulfonamide]
Second: CCOCc1nc2c(N)nc3cccnc3c2n1CCCCS(=O)(=O)NC [Example 32, N-Methyl 4-(4-Amino-2-ethoxymethyl-1H-imidazo[4,5-c][1,5]naphthyridin-1-yl)butane-1-sulfonamide]
The melting point of the first is higher: 174 to 175 °C for the first, 148 to 150 °C for the second.

Compared with CCOCc1nc2c(N)nc3ccccc3c2n1CCCCS(=O)(=O)NC(C)C [Example 37, 4-[4-Amino-2-(ethoxymethyl)-1H-imidazo[4,5-c]quinolin-1-yl]-N-isopropylbutane-1-sulfonamide], CCCCNS(=O)(=O)CCCCn1c(COCC)nc2c(N)nc3ccccc3c21 [Example 14, N-Butyl 4-(4-amino-2-ethoxymethyl-1H-imidazo[4,5-c]quinolin-1-yl)butane-1-sulfonamide] is higher in melting point: 146 to 147 °C for the first, 148 to 149 °C for the second.

Compared with CCOCc1nc2c(N)nc3ccccc3c2n1CC(C)(C)CS(=O)(=O)NCc1ccc(OC)cc1 [Example 41, 3-[4-Amino-2-(ethoxymethyl)-1H-imidazo[4,5-c]quinolin-1-yl]-N-(4-methoxybenzyl)-2,2-dimethylpropane-1-sulfonamide], CCOCc1nc2c(N)nc3ccccc3c2n1CC(C)(C)CS(=O)(=O)N(C)C (as salt: hydrochloride) [Example 25, N,N-Dimethyl 3-(4-amino-2-ethoxymethyl-1H-imidazo[4,5-c]quinolin-1-yl)-2,2-dimethylpropane-1-sulfonamide] is lower in melting point: 203 to 205 °C for the first, 193 to 195 °C for the second.

First: CCCc1nc2c(N)nc(C)c(C)c2n1CCCCS(=O)(=O)N(C)C [Example 26, N,N-Dimethyl 4-(4-Amino-6,7-dimethyl-2-propyl-1H-imidazo[4,5-c]pyridin-1-yl)butane-1-sulfonamide]
Second: CCc1nc2c(N)nc3ccccc3c2n1CCCCS(=O)(=O)N(C)C [Example 3, N,N-Dimethyl 4-(4-amino-2-ethyl-1H-imidazo[4,5-c]quinolin-1-yl)butane-1-sulfonamide]
The melting point of the first is lower: 127 to 128 °C for the first, 193 to 195 °C for the second.

Compared with CCc1nc2c(N)nc3c(c2n1CCCCS(=O)(=O)NC)CCCC3 [Example 39, N-Methyl 4-(4-amino-2-ethyl-6,7,8,9-tetrahydro-1H-imidazo[4,5-c]quinolin-1-yl)butane-1-sulfonamide], CCOCc1nc2c(N)nc3c(c2n1CCCCS(=O)(=O)NC)CCCC3 [Example 18, N-Methyl 4-(4-amino-2-ethoxymethyl-6,7,8,9-tetrahydro-1H-imidazo[4,5-c]quinolin-1-yl)butane-1-sulfonamide] is higher in melting point: 166 to 170 °C for the first, 188 to 192 °C for the second.

First: CCc1nc2c(N)nc3ccccc3c2n1CCCCS(=O)(=O)NC [Example 4, N-Methyl 4-(4-amino-2-ethyl-1H-imidazo[4,5-c]quinolin-1-yl)butane-1-sulfonamide]
Second: CCc1nc2c(N)nc3ccccc3c2n1CCCS(=O)(=O)NC [Example 1, N-Methyl 3-(4-amino-2-ethyl-1H-imidazo[4,5-c]quinolin-1-yl)propane-1-sulfonamide]
The melting point of the first is lower: 190 to 191 °C for the first, 225 to 228 °C for the second.

First: CCOCc1nc2c(N)nc3ccccc3c2n1CCOCCCS(=O)(=O)N(C)C [Example 15, N,N-Dimethyl 3-[2-(4-amino-2-ethoxymethyl-1H-imidazo[4,5-c]quinolin-1-yl)ethoxy]propane-1-sulfonamide]
Second: CCc1nc2c(N)nc3ccccc3c2n1CCCCS(N)(=O)=O (as salt: trifluoroacetate) [Example 6, 4-(4-Amino-2-ethyl-1H-imidazo[4,5-c]quinolin-1-yl)butane-1-sulfonamide]
The melting point of the first is lower: 61 to 64 °C for the first, 225 to 227 °C for the second.

Compared with CN(C)S(=O)(=O)CCCn1cnc2c(N)nc3ccccc3c21 [Example 7, N,N-Dimethyl 3-(4-amino-1H-imidazo[4,5-c]quinolin-1-yl)propane-1-sulfonamide], CCOCc1nc2c(N)nc3c(c2n1CCCCS(N)(=O)=O)CCCC3 [Example 24, 4-(4-Amino-2-ethoxymethyl-6,7,8,9-tetrahydro-1H-imidazo[4,5-c]quinolin-1-yl)butane-1-sulfonamide] is higher in melting point: 155 to 157 °C for the first, 224 to 227 °C for the second.

Work on CCOCc1nc2c(N)nc3c(c2n1CCCCCS(N)(=O)=O)CCCC3 [Example 38, 5-[4-amino-2-(ethoxymethyl)-6,7,8,9-tetrahydro-1H-imidazo[4,5-c]quinolin-1-yl]pentane-1-sulfonamide] yielded a melting point of 203 to 205 °C.

For Cc1nc2c(N)nc3c(c2n1CC(C)(C)CS(N)(=O)=O)CCCC3 [Example 43, 3-(4-Amino-2-methyl-6,7,8,9-tetrahydro-1H-imidazo[4,5-c]quinolin-1-yl)-2,2-dimethylpropane-1-sulfonamide], the melting point was 242 to 243 °C (dec.).
